Consider 28 molecules from PubChem BioAssay AID330 (DTP/NCI, 2004).

Where “and” joins values, the source holds several entries; their conditions need not be identical. Equal entries are not always repeated. Toxic doses and inconclusive results are not listed.

The assay relates to P388 leukemia ip, CD2F1 mice, survival T/C. Description: NCI In Vivo Anticancer Drug Screen. Data for tumor model P388 Leukemia (intraperitoneal) in CD2F1 (CDF1) mice. As to conditions: endpoint: median survival time, higher = longer survival. Summed up:
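Mice carrying the transplanted tumor received test compound or vehicle. Survival was recorded in each group, and the value is the treated-group measurement divided by that of the vehicle-treated control group.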

Where [1] appears, read: dose: 50.0 mg/kg/injection, schedule: Q01DX005 (ip), vehicle: saline with Tween-80.
Setting [2] is: dose: 100.0 mg/kg/injection, schedule: Q01DX005 (ip), vehicle: saline with Tween-80.
Where [3] appears, read: dose: 200.0 mg/kg/injection, schedule: Q01DX005 (ip), vehicle: saline with Tween-80.
Setting [4] is: dose: 60.0 mg/kg/injection, schedule: Q01DX005 (ip), vehicle: saline with Tween-80.
Where [5] appears, read: dose: 120.0 mg/kg/injection, schedule: Q01DX005 (ip), vehicle: saline with Tween-80.
The mark [6] stands for this setting: dose: 240.0 mg/kg/injection, schedule: Q01DX005 (ip), vehicle: saline with Tween-80.
Setting [7] is: dose: 50.0 mg/kg/injection, schedule: Q01DX009 (ip), vehicle: saline with Tween-80.
Setting [8] is: dose: 100.0 mg/kg/injection, schedule: Q01DX009 (ip), vehicle: saline with Tween-80.
The mark [9] stands for this setting: dose: 200.0 mg/kg/injection, schedule: Q01DX009 (ip), vehicle: saline with Tween-80.
Where [10] appears, read: dose: 100.0 mg/kg/injection, schedule: Q04DX003 (ip), vehicle: saline with Tween-80.
[11] abbreviates: dose: 100.0 mg/kg/injection, schedule: Q01DX001 (ip), vehicle: saline with Tween-80.
Where [12] appears, read: dose: 200.0 mg/kg/injection, schedule: Q01DX001 (ip), vehicle: saline with Tween-80.
Setting [13] is: dose: 400.0 mg/kg/injection, schedule: Q01DX001 (ip), vehicle: saline with Tween-80.
[14] abbreviates: dose: 100.0 mg/kg/injection, schedule: Q04DX002 (ip), vehicle: saline with Tween-80.
The mark [15] stands for this setting: dose: 50.0 mg/kg/injection, schedule: Q01DX005 (ip), vehicle: Klucel (hydroxypropylcellulose) (HPC).
Setting [16] is: dose: 100.0 mg/kg/injection, schedule: Q01DX005 (ip), vehicle: Klucel (hydroxypropylcellulose) (HPC).
The mark [17] stands for this setting: dose: 200.0 mg/kg/injection, schedule: Q01DX005 (ip), vehicle: Klucel (hydroxypropylcellulose) (HPC).
[18] abbreviates: dose: 60.0 mg/kg/injection, schedule: Q01DX005 (ip), vehicle: Klucel (hydroxypropylcellulose) (HPC).
Where [19] appears, read: dose: 120.0 mg/kg/injection, schedule: Q01DX005 (ip), vehicle: Klucel (hydroxypropylcellulose) (HPC).
Setting [20] is: dose: 240.0 mg/kg/injection, schedule: Q01DX005 (ip), vehicle: Klucel (hydroxypropylcellulose) (HPC).
[21] abbreviates: dose: 50.0 mg/kg/injection, schedule: Q01DX005 (ip), vehicle: saline.
The mark [22] stands for this setting: dose: 100.0 mg/kg/injection, schedule: Q01DX005 (ip), vehicle: saline.

Regarding `CC(O)C(NC(=O)SCc1ccccc1)C(=O)O` (stereo not drawn), the T/C is 101 % of control under setting [1], 90 % of control under setting [2] and 92 % of control under setting [3].

Turning to `O=c1c2c(oc3ccccc13)Oc1oc3ccccc3c(=O)c1C2c1ccc2c(c1)OCO2`, the T/C (dose: 15.0 mg/kg/injection, schedule: Q01DX005 (ip), vehicle: saline with Tween-80) was 96 % of control; the T/C (dose: 30.0 mg/kg/injection, schedule: Q01DX005 (ip), vehicle: saline with Tween-80) was 92 % of control and 96 % of control; the T/C under setting [4] is 91 % of control.

Regarding `COC(=O)/C(=C/c1ccccc1)N=[N+]=[N-]`, the T/C by setting is: under setting [4], 107 % of control; under setting [5], 110 % of control; under setting [6], 117 % of control.

Turning to `CC(=O)OC1CCC2(C)C(C1)CC(OC(C)=O)C1C2CC(OC(C)=O)C2(C)C(C(C)CC=C(c3ccccc3)c3ccccc3)CCC12` (stereo not drawn), the T/C is 100 % of control under setting [7], 98 % of control under setting [8] and 99 % of control under setting [9].

`CC1(C)N=C(Oc2cc(Cl)cc(Cl)c2)NC(=S)N1`: the T/C is 109 % of control (dose: 60.0 mg/kg/injection, schedule: Q01DX005 (ip), vehicle: DMSO); 100 % of control (dose: 120.0 mg/kg/injection, schedule: Q01DX005 (ip), vehicle: DMSO); 97 % of control (dose: 240.0 mg/kg/injection, schedule: Q01DX005 (ip), vehicle: DMSO).

For `COc1ccc2c(c1)OC(C)(C)C(c1ccccc1)=C2c1ccc(O)c([N+](=O)[O-])c1`, the T/C reads like this: under setting [1], 100 % of control; under setting [2], 101 % of control; under setting [3], 102 % of control.

On to `COc1ccc(C(=O)CC(C#N)c2ccc(OC)c(OC)c2)cc1OC` (stereo not drawn), for which the T/C runs as follows: under setting [10], 90 % of control; (dose: 200.0 mg/kg/injection, schedule: Q04DX003 (ip), vehicle: saline with Tween-80) 86 % of control; (dose: 400.0 mg/kg/injection, schedule: Q04DX003 (ip), vehicle: saline with Tween-80) 86 % of control.

For the molecule `CN1C(c2ccccc2)C2CSCC(C1c1ccccc1)C21NC(=O)NC1=O` (stereo not drawn), the T/C runs as follows: under setting [11], 104 % of control; under setting [12], 100 % of control; under setting [13], 97 % of control.

On to `CCC(=O)Cc1nc2n(c1O)/C(=N/C(=O)Nc1ccc(Cl)cc1)N=N2`, for which the T/C is 100 % of control under setting [4], 98 % of control under setting [5] and 98 % of control under setting [6].

As for `CCCC1c2c(ccc3c2OCO3)CC[N+]1(C)CCN(CC)CC` (stereo not drawn), the T/C is 109 % of control (dose: 6.25 mg/kg/injection, schedule: Q01DX005 (ip), vehicle: saline with Tween-80); 98 % of control (dose: 12.5 mg/kg/injection, schedule: Q01DX005 (ip), vehicle: saline with Tween-80); 100 % of control and 105 % of control (dose: 25.0 mg/kg/injection, schedule: Q01DX005 (ip), vehicle: saline with Tween-80).

For the molecule `CNC(=O)Oc1ccc(C2CCCCC2)cc1`, the T/C under setting [7] was 107 % of control, the T/C under setting [8] is 107 % of control and the T/C under setting [9] was 88 % of control.

As to `CCOC(=O)CNC(=O)N1COCC1(C)C`, the T/C (dose: 50.0 mg/kg/injection, schedule: Q01DX009 (ip), vehicle: Klucel (hydroxypropylcellulose) (HPC)) is 95 % of control; the T/C (dose: 100.0 mg/kg/injection, schedule: Q01DX009 (ip), vehicle: Klucel (hydroxypropylcellulose) (HPC)) is 95 % of control; the T/C (dose: 200.0 mg/kg/injection, schedule: Q01DX009 (ip), vehicle: Klucel (hydroxypropylcellulose) (HPC)) is 95 % of control.

`OCCN(CCO)Cc1cccc2ccccc12`: the T/C reads like this: under setting [1], 94 % of control; under setting [2], 94 % of control.

For the molecule `CCCCN(N=O)C(C)=O`, the T/C runs as follows: under setting [14], 101 % of control; (dose: 200.0 mg/kg/injection, schedule: Q04DX002 (ip), vehicle: saline with Tween-80) 98 % of control.

As for `CCCn1c2ccccc2c2c(C)c3cnccc3c(C)c21`, the T/C is, setting by setting: (dose: 12.5 mg/kg/injection, schedule: Q04DX002 (ip), vehicle: saline with Tween-80) 100 % of control; (dose: 25.0 mg/kg/injection, schedule: Q04DX002 (ip), vehicle: saline with Tween-80) 97 % of control; (dose: 50.0 mg/kg/injection, schedule: Q04DX002 (ip), vehicle: saline with Tween-80) 94 % of control; under setting [14], 105 % of control.

On to `COC1=C(C)C(=O)c2c(c(/C=N/NC(N)=S)c(Cl)n2C)C1=O`, for which the T/C under setting [11] is 103 % of control, the T/C under setting [12] is 93 % of control and the T/C under setting [13] was 96 % of control.

On to `CCOc1cc2c(cc1C(C)c1cc(OC)c(OC)c(OC)c1)OCO2` (stereo not drawn), for which the T/C by setting is: under setting [15], 96 % of control; under setting [16], 102 % of control; under setting [17], 96 % of control.

As to `CCOC(=O)c1cc(=O)c2c(OC)ccc(Cl)c2[nH]1`, the T/C is, setting by setting: under setting [18], 100 % of control; under setting [19], 99 % of control; under setting [20], 96 % of control.

For `COC1=CC(=O)C(Cc2ccc(OC)cc2)=CC1=O`, the T/C is, setting by setting: (dose: 2.5 mg/kg/injection, schedule: Q01DX009 (ip), vehicle: saline with Tween-80) 100 % of control; (dose: 5.0 mg/kg/injection, schedule: Q01DX009 (ip), vehicle: saline with Tween-80) 100 % of control; (dose: 10.0 mg/kg/injection, schedule: Q01DX009 (ip), vehicle: saline with Tween-80) 100 % of control.

For the molecule `[Cl][Sn]([CH2]C[CH2][Sn]([Cl])([c]1ccccc1)[c]1ccccc1)([c]1ccccc1)[c]1ccccc1`, the T/C runs as follows: (dose: 3.12 mg/kg/injection, schedule: Q01DX005 (ip), vehicle: Klucel (hydroxypropylcellulose) (HPC)) 99 % of control; (dose: 6.25 mg/kg/injection, schedule: Q01DX005 (ip), vehicle: Klucel (hydroxypropylcellulose) (HPC)) 99 % of control; (dose: 12.5 mg/kg/injection, schedule: Q01DX005 (ip), vehicle: Klucel (hydroxypropylcellulose) (HPC)) 98 % of control.

`CCCC(O)CNCc1ccnc2ccc(OC)cc12` (stereo not drawn): the T/C is, setting by setting: under setting [21], 109 % of control; under setting [22], 98 % of control.

On to `O=C1C(O)[C@@H](O)C(=O)N1Cc1ccccc1` (stereo partly drawn), for which the T/C is 97 % of control under setting [18], 102 % of control under setting [19] and 93 % of control under setting [20].

For the molecule `COC(=O)C1=COC(C)C2CN3CCc4c([nH]c5ccccc45)C3CC12` (stereo not drawn), the T/C under setting [1] was 106 % of control; the T/C under setting [4] is 100 % of control; the T/C under setting [2] was 106 % of control; the T/C under setting [5] is 93 % of control; the T/C under setting [3] is 100 % of control; the T/C under setting [6] is 90 % of control.

Consider `C(CCSCCCCSCCCCCC1=NCCN1)CCC1=NCCN1`, for which the T/C runs as follows: under setting [15], 94 % of control; under setting [16], 95 % of control; under setting [17], 99 % of control.

With `CCN(C(=O)CCl)c1ccccc1C`, the T/C reads like this: (dose: 50.0 mg/kg/injection, schedule: Q04DX003 (ip), vehicle: saline with Tween-80) 100 % of control; under setting [10], 100 % of control.

Take `c1ccc(CC2NCCc3c2[nH]c2ccccc32)cc1` (stereo not drawn): the T/C reads like this: under setting [1], 100 % of control; under setting [2], 99 % of control; under setting [3], 94 % of control.

As for `O=C(Nc1ccc(N=Nc2ccc(S(=O)(=O)O)cc2)cc1)c1ccc(N=Nc2cc(S(=O)(=O)O)c3ccccc3c2O)cc1`, the T/C was 110 % of control under setting [21] and 104 % of control under setting [22].

For the molecule `COc1ccc(C(C)c2cc(C(C)(C)C)c(O)c(C(C)(C)C)c2)cc1` (stereo not drawn), the T/C was 103 % of control (dose: 50.0 mg/kg/injection, schedule: Q01DX005 (ip), vehicle: distilled water + alcohol); 100 % of control (dose: 100.0 mg/kg/injection, schedule: Q01DX005 (ip), vehicle: distilled water + alcohol); 105 % of control (dose: 200.0 mg/kg/injection, schedule: Q01DX005 (ip), vehicle: distilled water + alcohol).
